Experimental findings from patent US7501430B2 (ArQule, Inc., priority 2006, dated 2009) are described below.

pIC50: −log10 of the molar value. A value given as a limit tells only on which side of the number the result lay.

In the first experiment the target is T1, mutant B-RAF (Homo sapiens, UniProt P15056, V600E).
T1 construct: purchased Upstate (Charlottesville, Va.)
T1 sequence (P15056 whole entry V600E): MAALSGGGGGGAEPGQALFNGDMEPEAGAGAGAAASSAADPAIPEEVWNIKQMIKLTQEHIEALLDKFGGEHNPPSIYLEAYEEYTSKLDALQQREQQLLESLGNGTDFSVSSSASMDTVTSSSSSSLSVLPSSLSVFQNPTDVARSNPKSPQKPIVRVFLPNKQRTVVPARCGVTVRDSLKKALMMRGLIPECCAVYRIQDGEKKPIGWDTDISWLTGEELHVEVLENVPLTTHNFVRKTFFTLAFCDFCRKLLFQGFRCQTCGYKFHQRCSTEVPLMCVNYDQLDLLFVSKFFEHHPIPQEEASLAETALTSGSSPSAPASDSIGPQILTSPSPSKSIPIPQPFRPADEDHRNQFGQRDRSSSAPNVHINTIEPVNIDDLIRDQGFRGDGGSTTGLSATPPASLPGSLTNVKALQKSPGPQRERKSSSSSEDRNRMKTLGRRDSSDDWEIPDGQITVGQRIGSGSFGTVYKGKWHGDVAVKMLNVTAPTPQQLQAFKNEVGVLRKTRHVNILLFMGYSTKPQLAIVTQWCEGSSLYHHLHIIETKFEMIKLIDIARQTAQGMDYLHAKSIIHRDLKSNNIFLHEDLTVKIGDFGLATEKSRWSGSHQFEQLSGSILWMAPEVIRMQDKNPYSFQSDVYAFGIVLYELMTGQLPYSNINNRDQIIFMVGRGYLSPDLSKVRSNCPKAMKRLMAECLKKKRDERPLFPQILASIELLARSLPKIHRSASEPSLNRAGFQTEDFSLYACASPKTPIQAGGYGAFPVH
Description: RAF biochemical assay (MEK-1 phosphorylation, anti-phospho MEK1/2 detection).
Details: not given
As for the experimental part: Materials: The RAF kinases and the anti-phospho MEK1/2 antibody were from Upstate (Charlottesville, Va.). The RAF substrate used was full length N-terminal GST-MEK-1, which was expressed in E. coli and purified in-house by HPLC. All proteins were aliquoted and stored at −80° C.
Compounds were serially diluted in assay buffer containing 1% DMSO and 20 μL of test compound at a concentration 3-fold more than the final concentration, and were added to a polypropylene V-well reaction plate. Vehicle control wells received buffer only with DMSO at equivalent concentrations to the test wells. […] These reaction plates were incubated at room temperature for 30 minutes. Capture of MEK-1 was initiated by transferring 50 μl of the reaction mixture to a Nunc Maxisorp™ microplate that is designed for non-specific protein capture. After 30 minute capture of MEK-1 at room temperature, this plate was washed with TBST (6×200 μL/well) to fully terminate the reaction. The plate was then blocked for 1 hour by the addition of 100 μl/well of Superblock™ in phosphate buffered saline (PBS) blocking reagent. Plate was again washed with TBST (6 times with 200 μL/well), followed by the addition of 70 μL/well of Upstate anti-phospho MEK 1/2 diluted 1:1000 in Pierce Superblock (PBS). After a 60 minute incubation, this plate was washed with TBST (6 times with 200 μL/well), and 70 μL of the secondary antibody (Pierce Alkaline Phosphatase tagged goat anti-rabbit) prepared at 1:4000 in Superblock, were added. After a 45 minute incubation at room temperature, the wells of the microplate were washed with TBST (6 times with 200 μL/well), and thereafter 100 μl/well of Attophos™ fluorescent alkaline phosphatase substrate was added according to the manufacturer's instructions (JBL Scientific).
Broadly, the pIC50 is −log10 of the IC50, conventionally taken in molar units. `O=C(c1ccncc1)N1CCC[C@@H](Nc2nccc(-c3c(-c4ccc(F)cc4)nc4occn34)n2)C1` [Example 32, 4-[6-(4-fluorophenyl)imi-dazo[2,1-b][1,3]oxazol-5-yl]-N-[(3R)-1-isonicotinoylpiper-idin-3-yl]pyrimidin-2-amine] gave a pIC50 of 6.44.

The experiment is the same for the next values; noted with them: @ 10 uM; read-out: Mutant B-RAF % inhibition.
Usually inhibition stands for the drop in the measured response relative to a control, in per cent. `Fc1ccc(-c2nc3occn3c2-c2ccnc(NC3CCNCC3)n2)c(Cl)c1` [Example 301, 4-[6-(2-chloro-4-fluorophenyl)imidazo[2,1-b][1,3]oxazol-5-yl]-N-piperidin-4-ylpyrimidin-2-amine]: the inhibition at 10 µM stood at 39%. Turning to `Cc1cc(NC(=O)N2CCC(Nc3nccc(-c4c(-c5ccc(F)cc5)nc5occn45)n3)CC2)c(C(F)(F)F)o1` [Example 186, 4-({4-[6-(4-fluorophenyl)imidazo[2,1-b][1,3]oxazol-5-yl]pyrimidin-2-yl}amino)-N-[5-methyl-2-(trifluoromethyl)-3-furyl]piperidine-1-carboxamide], the inhibition at 10 µM came out at 16%.

For `Cc1cn2c(-c3ccnc(NC4CCNCC4)n3)c(-c3ccc(F)cc3)nc2s1` [Example 224, 4-[6-(4-fluorophenyl)-2-methylimidazo[2,1-b][1,3]thiazol-5-yl]-N-piperidin-4-ylpyrimidin-2-amine], the inhibition at 10 µM was 70%. As for `COc1cccc(OC)c1C(=O)N1CCC(Nc2nccc(-c3c(-c4ccc(F)cc4)nc4occn34)n2)CC1` [Example 210, N-[1-(2,6-dimethoxybenzoyl)piperidin-4-yl]-4-[6-(4-fluorophenyl)imidazo[2,1-b][1,3]oxazol-5-yl]pyrimidin-2-amine], the inhibition at 10 µM stood at 38%. On to `O=C(NCc1ccccc1)N1CCC[C@@H](Nc2nccc(-c3c(-c4ccc(F)c(F)c4)nc4sccn34)n2)C1` [Example 87, (3R)-N-benzyl-3-({4-[6-(3,4-difluorophenyl)imidazo[2,1-b][1,3]thiazol-5-yl]pyrimidin-2-yl}amino)piperidine-1-carboxamide], for which the inhibition at 10 µM was 53%.

Staying with this experiment, now noted: read-out: Mutant B-RAF % inhibition.
`COc1cccc(S(=O)(=O)N2CCC[C@@H](Nc3nccc(-c4c(-c5ccc(F)cc5)nc5occn45)n3)C2)c1` [Example 57, 4-[6-(4-fluorophenyl)imi-dazo[2,1-b][1,3]oxazol-5-yl]-N-{(3R)-1-[(3-methoxy-phenyl)sulfonyl]piperidin-3-yl}pyrimidin-2-amine]: the inhibition at 10 µM is 34%.

Staying with this experiment, now noted: read-out: Mutant B-RAF IC50.
Regarding `COc1cc([N+](=O)[O-])ccc1NC(=O)N1CCC[C@@H](Nc2nccc(-c3c(-c4ccc(F)cc4)nc4occn34)n2)C1` [Example 75, (3R)-3-({4-[6-(4-fluorophenyl)imidazo[2,1-b][1,3]oxazol-5-yl]pyrimidin-2-yl}amino)-N-(2-methoxy-4-nitrophenyl)piperidine-1-carboxamide], the pIC50 was less than 5.00. Take `O=S(=O)(c1ccc(Cl)cc1)N1CCC[C@@H](Nc2nccc(-c3c(-c4ccc(CO)cc4)nc4sccn34)n2)C1` [Example 378, (4-{5-[2-({(3R)-1-[(4-chlorophenyl)sulfonyl]piperidin-3-yl}amino)pyrimidin-4-yl]imidazo[2,1-b][1,3]thiazol-6-yl}phenyl)methanol]: the pIC50 was 5.65. Same read-out and setting: to `CC(C)CC(=O)N1CCC(Nc2nccc(-c3c(-c4ccc(F)cc4)nc4occn34)n2)CC1` [Example 180, 4-[6-(4-fluorophenyl)imidazo[2,1-b][1,3]oxazol-5-yl]-N-[1-(3-methylbutanoyl)piperidin-4-yl]pyrimidin-2-amine] belongs 5.69; to `O=S(=O)(Cc1ccccc1)N1CCC[C@@H](Nc2nccc(-c3c(-c4cccc(O)c4)nc4occn34)n2)C1` [Example 391, 3-[5-(2-{[(3R)-1-(benzylsulfonyl)piperidin-3-yl]amino}pyrimidin-4-yl)imidazo[2,1-b][1,3]oxazol-6-yl]phenol], less than 5.52.

Take `Cc1ccc(-c2nc3scc(C)n3c2-c2ccnc(NC3CCN(C(=O)Nc4ccc(N(C)C)cc4)CC3)n2)cc1` [Example 252, N-[4-(dimethylamino)phenyl]-4-({4-[3-methyl-6-(4-methylphenyl)imidazo[2,1-b][1,3]thiazol-5-yl]pyrimidin-2-yl}amino)piperidine-1-carboxamide]: the pIC50 is less than 5.52. On the same count and under the same terms, as for `CC(C)NC(=O)N1CCC(Nc2nccc(-c3c(-c4cccc(O)c4)nc4sccn34)n2)CC1` [Example 351, 4-({4-[6-(3-hydroxyphenyl)imidazo[2,1-b][1,3]thiazol-5-yl]pyrimidin-2-yl}amino)-N-isopropylpiperidine-1-carboxamide], the figure is 6.03. For the compound `N#Cc1cccc(-c2nc3sccn3c2-c2ccnc(N[C@@H]3CCCN(S(=O)(=O)c4ccc(C(=O)O)cc4)C3)n2)c1` [Example 129], the negative-log IC50 (pIC50) was less than 5.52.

Consider `O=C(NC1CCCCO1)N1CCC(Nc2nccc(-c3c(-c4ccc(F)cc4)nc4occn34)n2)CC1` (centres unmarked) [Example 177, 4-({4-[6-(4-fluorophenyl)imidazo[2,1-b][1,3]oxazol-5-yl]pyrimidin-2-yl}amino)-N-(tetrahydro-2H-pyran-2-yl)piperidine-1-carboxamide], for which the pIC50 was 6.45. On to `COc1ccccc1-c1nc2sccn2c1-c1ccnc(NC2CCNCC2)n1` [Example 261, 4-[6-(2-methoxyphenyl)imidazo[2,1-b][1,3]thiazol-5-yl]-N-piperidin-4-ylpyrimidin-2-amine], for which the pIC50 is less than 5.52. As to `O=S(=O)(c1cccs1)N1CCC[C@@H](Nc2nccc(-c3c(-c4cccc(O)c4)nc4sccn34)n2)C1` [Example 371, 3-[5-(2-{[(3R)-1-(2-thienylsulfonyl)piperidin-3-yl]amino}pyrimidin-4-yl)imidazo[2,1-b][1,3]thiazol-6-yl]phenol], the negative logarithm of the IC50 (pIC50) was 8.52.

Consider `Fc1ccc(-c2nc3sccn3c2-c2ccnc(NC3CNC3)n2)cc1` [Example 287, N-azetidin-3-yl-4-[6-(4-fluorophenyl)imidazo[2,1-b][1,3]thiazol-5-yl]pyrimidin-2-amine], for which the negative-log IC50 (pIC50) was 5.60.

For `Cc1cn2c(-c3ccnc(NC4CCN(C(=O)NCc5ccccc5)CC4)n3)c(-c3ccc(F)cc3)nc2s1` [Example 241, N-benzyl-4-({4-[6-(4-fluorophenyl)-2-methylimidazo[2,1-b][1,3]thiazol-5-yl]pyrimidin-2-yl}amino)piperidine-1-carboxamide], the pIC50 was 5.60. Still for that read-out and setting: as for `O=C(NCCc1ccccc1)N1CCC(Nc2nccc(-c3c(-c4ccc(F)cc4)nc4occn34)n2)CC1` [Example 169, 4-({4-[6-(4-fluorophenyl)imidazo[2,1-b][1,3]oxazol-5-yl]pyrimidin-2-yl}amino)-N-(2-phenylethyl)piperidine-1-carboxamide], the figure is 6.58. Still for that read-out and setting: to `O=Cc1cccc(-c2nc3sccn3c2-c2ccnc(N[C@@H]3CCCN(S(=O)(=O)c4ccc(Cl)cc4)C3)n2)c1` [Example 390, 3-{5-[2-({(3R)-1-[(4-chlorophenyl)sulfonyl]piperidin-3-yl}amino)pyrimidin-4-yl]imidazo[2,1-b][1,3]thiazol-6-yl}benzaldehyde] belongs 6.55. On to `Cc1cn2c(-c3ccnc(N[C@@H]4CCCN(S(=O)(=O)c5ccc(Cl)cc5)C4)n3)c(-c3ccc(F)cc3)nc2s1` [Example 96, N-{(3R)-1-[(4-chlorophenyl)sulfonyl]piperidin-3-yl}-4-[6-(4-fluorophenyl)-2-methyl-imidazo[2,1-b][1,3]thiazol-5-yl]pyrimidin-2-amine], for which the negative-log IC50 (pIC50) was 7.59. The same measure, in the same setting: to `CCOC(=O)c1ccc(-c2nc3sccn3c2-c2ccnc(N[C@@H]3CCCN(S(=O)(=O)c4ccc(Cl)cc4)C3)n2)cc1` [Example 361, ethyl 4-{5-[2-({(3R)-1-[(4-chlorophenyl)sulfonyl]piperidin-3-yl}amino)pyrimidin-4-yl]imidazo[2,1-b][1,3]thiazol-6-yl}benzoate] belongs 5.49; to `CC(C)NC(=O)N1CCC[C@@H](Nc2nccc(-c3c(-c4cccc(O)c4)nc4sccn34)n2)C1` [Example 334, (3R)-3-({4-[6-(3-hydroxyphenyl)imidazo[2,1-b][1,3]thiazol-5-yl]pyrimidin-2-yl}amino)-N-isopropylpiperidine-1-carboxamide], 6.19. `CC(=O)c1cccc(-c2nc3sccn3c2-c2ccnc(N[C@@H]3CCCN(S(=O)(=O)c4ccc(Cl)cc4)C3)n2)c1` [Example 384, 1-(3-{5-[2-({(3R)-1-[(4-chlorophenyl)sulfonyl]piperidin-3-yl)amino)pyrimidin-4-yl]imidazo[2,1-b][1,3]thiazol-6-yl}phenyl)ethanone]: the pIC50 was 5.89.

Still in this experiment, the particulars now being: read-out: Mutant B-RAF IC50 (uM) or % inhibition.
For orientation: IC50 means the midpoint of a concentration-inhibition curve. Regarding `CC(=O)c1ccc(-c2nc3sccn3c2-c2ccnc(N[C@@H]3CCCN(S(=O)(=O)c4ccc(Cl)cc4)C3)n2)cc1` [Example 400, 1-(4-{5-[2-({(3R)-1-[(4-chlorophenyl)sulfonyl]piperidin-3-yl}amino)pyrimidin-4-yl]imidazo[2,1-b][1,3]thiazol-6-yl}phenyl)ethanone], the concentration for half-maximal inhibition (IC50) worked out at 1.3 µM.
